Data on 33 compounds can be found in ChEMBL document CHEMBL5108074 (J Med Chem, 2022).

In general, IC50 refers to the concentration needed to halve the response being measured.

In the assay the target is Plasma kallikrein (Homo sapiens, UniProt P03952). Put plainly: Inhibition of human plasma kallikrein using H-D-Pro-Phe-Arg-AFC as flurogenic substrate preincubated for 5 mins followed by substrate addition by fluorometer analysis. It counts as cell-free.
Plasma kallikrein, sequence (P03952 20-390 limits assumed): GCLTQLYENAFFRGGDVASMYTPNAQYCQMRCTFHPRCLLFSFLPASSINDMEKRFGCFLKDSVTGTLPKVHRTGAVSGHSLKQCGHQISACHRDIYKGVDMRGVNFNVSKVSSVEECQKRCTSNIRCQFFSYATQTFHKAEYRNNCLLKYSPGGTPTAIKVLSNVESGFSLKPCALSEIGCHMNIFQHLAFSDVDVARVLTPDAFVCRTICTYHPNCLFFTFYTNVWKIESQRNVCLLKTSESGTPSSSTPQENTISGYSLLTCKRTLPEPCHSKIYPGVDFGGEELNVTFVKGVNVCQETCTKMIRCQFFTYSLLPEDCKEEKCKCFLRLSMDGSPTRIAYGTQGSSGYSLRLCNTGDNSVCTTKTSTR
Plasma kallikrein, sequence (P03952 391-638 limits assumed): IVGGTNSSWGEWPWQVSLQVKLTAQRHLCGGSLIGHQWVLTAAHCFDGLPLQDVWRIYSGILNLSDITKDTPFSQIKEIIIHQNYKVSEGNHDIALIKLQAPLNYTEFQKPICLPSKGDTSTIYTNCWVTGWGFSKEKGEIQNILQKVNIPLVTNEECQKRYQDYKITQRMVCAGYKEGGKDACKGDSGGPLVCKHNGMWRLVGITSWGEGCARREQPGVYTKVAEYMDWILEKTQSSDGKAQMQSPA

In turn, `COCc1nn(Cc2ccc(Cn3ccccc3=O)cc2)cc1C(=O)NCc1sccc1Cl` came in with an IC50 of 210 nM. Compound `Cc1cc(C(=O)NCc2ccc(CN)cc2)c(C)n1Cc1cccs1` had an IC50 of 2700 nM. With `COCc1nn(Cc2ccc(Cn3ccccc3=O)cc2)cc1C(=O)NCc1nccc(C)c1F`, it took 140 nM to reach half-maximal inhibition (IC50). Regarding `COCc1nn(Cc2ccc(Cn3ccccc3=O)cc2)cc1C(=O)NCc1cc(C)[nH]n1`, the midpoint of inhibition, the IC50, lay at 220 nM. Turning to `COCc1nn(Cc2ccc(Cn3ccccc3=O)cc2)cc1C(=O)NCc1ncc(C)c(OC)c1C`, the IC50 amounted to 37 nM. As for `Cc1cc(C(=O)NCc2ccc(CN)cc2)c(C)n1Cc1csc(Cc2ccccc2)n1`, the concentration for half-maximal inhibition (IC50) turned out to be 2700 nM. `COCc1nn(Cc2ccc(Cn3ccccc3=O)cc2)cc1C(=O)NCc1ncc(Cl)cc1F` showed an IC50 of 160 nM. Turning to `COCc1nn(Cc2ccc(Cn3ccccc3=O)cc2)cc1C(=O)NCc1nc(OC)ccc1F`, half-maximal inhibition (IC50) was put at 900 nM. With `Cc1cc(C(=O)NCc2ccc(CN)cc2)c(C)n1CCCCCc1ccccc1`, 3800 nM corresponded to half-maximal inhibition (IC50). Compound `Cc1cc(C(=O)NCc2ccc(CN)cc2)c(C)n1Cc1csc(-c2ccccc2)c1` came in with an IC50 of 600 nM.

For the compound `COCc1nn(Cc2ccc(Cn3ccccc3=O)cc2)cc1C(=O)NCc1nc(C)ccc1F`, 900 nM corresponded to half-maximal inhibition (IC50). The compound `Cc1cc(C(=O)NCc2ccc(CN)cc2)c(C)n1Cc1cccc(-c2ccccc2)c1` gave a half-maximal inhibitory concentration (IC50) of 730 nM. The compound `COCc1nn(Cc2ccc(Cn3ccccc3=O)cc2)cc1C(=O)NCc1cnccc1C(F)(F)F` came in with a half-inhibitory concentration (IC50) of 460 nM. In the case of `COCc1nn(Cc2ccc(Cn3ccccc3=O)cc2)cc1C(=O)NCc1ncc(F)cc1F`, the 50% inhibitory concentration (IC50) is 2220 nM. As to `Cc1cnn(Cc2ccc(Cn3c(C)cc(C(=O)NCc4ccc(CN)cc4)c3C)cc2)c1`, the IC50 came out at 65 nM. In turn, `Cc1cc(C(=O)NCc2ccc(CN)cc2)c(C)n1CCc1ccccc1` gave a 50% inhibitory concentration (IC50) above 10000 nM. For `Cc1cc(C(=O)NCc2ccc(CN)cc2)c(C)n1Cc1cc(-c2ccccc2)cs1`, the IC50 stood at 570 nM. `Cc1cc(C(=O)NCc2ccc(C(=N)N)cc2)c(C)n1Cc1ccccc1` showed an IC50 of 5.5 nM.

With `Cc1cc(C(=O)NCc2ccc(CN)cc2)c(C)n1CCCc1ccccc1`, the concentration for half-maximal inhibition (IC50) stood at 4800 nM. Take `Cc1cc(C(=O)NCc2ccc(CN)cc2)c(C)n1Cc1csc(-c2cccnc2)c1`: half-maximal inhibition (IC50) was put at 440 nM.

Regarding `Cc1cc(C(=O)NCc2ccc(CN)cc2)c(C)n1Cc1ccc(-c2ccccc2)cc1`, inhibition was half-maximal at 5600 nM (IC50).

The compound `COCc1nn(Cc2ccc(Cn3ccccc3=O)cc2)cc1C(=O)NCc1ncc(Cl)cc1C#N` displayed a concentration for half-maximal inhibition (IC50) of 250 nM. `Cc1cc(C(=O)NCc2ccc(CN)cc2)c(C)n1Cc1ccccc1`: the IC50 amounted to 3700 nM. Consider `Cc1cc(C(=O)NCc2ccc(CN)cc2)c(C)n1CCCCc1ccccc1`, for which it took 920 nM to reach half-maximal inhibition (IC50).

The compound `N=C(N)c1ccc(CNC(=O)c2cnn(Cc3ccccc3)c2)cc1` showed an IC50 of 62 nM. The result for `Cc1cc(C(=O)NCc2ccc(CN)cc2)c(C)n1Cc1csc(-c2ccccc2)n1` reads 72 nM. In the case of `Cc1cc(C(=O)NCc2ccc(CN)cc2)c(C)n1Cc1cccc(-c2cccnc2)n1`, 580 nM corresponded to half-maximal inhibition (IC50). The compound `COCc1nn(Cc2ccc(Cn3ccccc3=O)cc2)cc1C(=O)NCc1cc[nH]n1` returned a half-inhibitory concentration (IC50) of 570 nM. `NCc1ccc(CNC(=O)c2cnn(Cc3csc(-c4ccccc4)n3)c2)cc1`: the half-inhibitory concentration (IC50) was determined as 850 nM. The result for `COCc1nn(Cc2ccc(Cn3ccccc3=O)cc2)cc1C(=O)NCc1nccc(Cl)c1F` reads 93 nM; that for `COCc1nn(Cc2ccc(Cn3ccccc3=O)cc2)cc1C(=O)NCc1nccc(C)c1Cl`, 300 nM; that for `COCc1nn(Cc2ccc(Cn3ccccc3=O)cc2)cc1C(=O)NCc1nccc(OC(C)C)c1F`, 2400 nM. In turn, `Cc1cc(C(=O)NCc2ccc(CN)cc2)c(C)n1Cc1coc(-c2ccccc2)n1` had a half-maximal inhibitory concentration (IC50) of 480 nM.
